Test results reported in patent US5104859A, “Continuous administration of adenosine to reduce pulmonary vascular resistance” (priority 1990, dated 1992).
Values joined by “and” are separate entries in the source; they are usually repeats but may differ in a detail not shown here. Equal values may be shown once. “Also recorded” adds a separate entry of the source.

Experiments:
[1] = system: atrio-ventricular (A-V) node; assay: Atrio-ventricular conductance / heart block; assay type: in vivo, human
Text: In accordance with this invention, adenosine may be administered to human patients by continuous intravenous infusion to provide significant vasodilation and without significant heart blockage under two conditions. First, the heart blocking action of adenosine is not detected during anesthesia when the rate of administration is 0.35 milligrams of adenosine per kilogram of body weight per minute or less. Second, the heart blocking action of adenosine is not detected, even in conscious patients, at rates of administration of about 0.10 milligram of adenosine per kilogram of body weight per minute or less.

[2] = system: systemic arterial blood pressure and central hemodynamics; assay: Controlled hypotension during anesthesia: central hemodynamics (dipyridamole-pretreated cerebral aneurysm surgery patients); settings: for tachyphylaxis: constant infusion rate during hypotension
Method: One hour before the operation the patients were premedicated orally with diazepam (10-20 mg.) Atropine (0.5 mg) and droperidol (0.1 mg. per kg.) were given intravenously before induction of anesthesia. Induction was started with thiopental (5 mg. per kg) followed by phenoperidine (1-2 mg), a synthetic opiate with pharmacodymanics resembling fentanyl but with a longer duration of action and 1/10 of its analgesic potency.
Pancuronium bromide (0.1 mg per kg) was given to facilitate endotracheal intubation. Anesthesia was maintained by supplementary doses of phenoperidine and droperidol, as required. […] Phenoperidine was supplemented regularly to prevent the blood pressure from exceeding the preanesthetic level (approx. 1 mg/30-60 min). Controlled hyperventilation was employed with a humidified gas mixture of 60% N2 O in oxygen to maintain PaCO2 values at approximately 30 mmHg (±1.5/SEM). Mannitol (1-1.5 g. per kg) was given routinely at the start of the operation (e.g., 1-2 hours prior to the controlled hypotension). The patients were operated on in the horizontal supine position.
A 1.2-mm plastic cannula was introduced into the left radial artery to monitor systemic arterial blood pressure (MABP) and collect arterial blood. A balloon-tipped, flow-directed, quadruple lumen Swan-Ganz catheter (Model 93A-831-7.5 F, VIP) was inserted percutaneously via the left basilic vein, and its correct position in the pulmonary artery was determined by pressure tracings. The catheter was used for the monitoring of mean right atrial pressure (RAP), mean pulmonary artery pressure (PAP), and mean pulmonary capillary wedge pressure (PCWP) for the determination of cardiac output and collection of mixed venous blood and for the infusion of adenosine. Another plastic cannula was introduced percutaneously, in a retrograde direction, into the right jugular bulb for the collection of blood. The correct position was verified by x-ray.
The ECG was monitored with a standard chest (V5) lead. Heart rate was determined from the R-R interval. Blood pressures were measured by transducers placed at the midthoracic level. Cardiac output (QT) was determined in triplicate according to the thermodilution technique with a cardiac output computer (Edwards Lab, model 9510). Isotonic glucose, 10 ml at 1° C., was used as a thermal indicator. The ECG, heart rate, blood pressures, and thermodilution curves were recorded on a Grass® polygraph.
Measurements and blood samplings were performed immediately before hypotension, as late as possible during hypotension (1-5 min before terminating the infusion) and approximately 30 min after the hypotensive period.
Dipyridamole (5 mg. per ml) was infused iv (0.3-0.4 mg. per kg. over a period of 5-10 min) approximately 20 minutes prior to the induction of controlled hypotension. […] (See Pedersen, J. Chromatogr., 162: 98-103 (1979).
The infusion was started at a rate of 0.01 mg. per kg. per minute, which was doubled at 15 second intervals until the desired MABP level of 40-50 mmHg was reached. […] Serum creatinine was determined before and on two consecutive days after operation. The standard ECG was recorded the day before and the day after operation.
Systemic vascular resistance (SVR) was derived from the formula [formula] and pulmonary vascular resistance (PVR) from the formula [formula]
The statistical significance (control 1 vs. adenosine and control 1 vs. control 2) was determined by Student's t test for paired data. A P value of <0.05 was regarded as significant.

[3] = Control 2, 30 min after hypotension

Nc1ncnc2c1ncn2[C@@H]1O[C@H](CO)[C@@H](O)[C@H]1O [adenosine]
heart block in conscious patients ([1]; about 0.10 mg/kg/min or less): not detected | heart block / blockage of A-V conductance during anesthesia ([1]; anesthesia, 0.35 mg/kg/min or less, 0.35 mg/kg): not detected; also recorded: does not occur; also recorded: no blockage of atrio-ventricular conductance is observed | A-V activity at vasodilating doses ([1]; continuous infusion): significant useful vasodilating action at dosages below those at which it has significant A-V activity | PVR during adenosine [2]: unchanged | RAP, PAP and PCWP [2]: not influenced | decrease in MABP [2]: 43±3% | decrease in SVR [2]: 61±3% | increase in cardiac output [2]: 44±9% | increase in heart rate [2]: 9±2 beats per minute | Cardiac output [2, 3]: 5.17 ± 0.54 liters per min. | Diastolic blood pressure [2, 3]: 71 ± 3 mmHg | Mean arterial blood pressure [2, 3]: 91 ± 4 mmHg | Pulmonary artery pressure [2, 3]: 14.7 ± 1.4 mmHg | Pulmonary capillary wedge pressure [2, 3]: 9.9 ± 1.4 mmHg | Pulmonary vascular resistance [2, 3]: 0.97 ± 0.15 mmHg per liter min. | Right atrial pressure [2, 3]: 5.6 ± 0.8 mmHg | Systolic blood pressure [2, 3]: 130 ± 7 mmHg | heart rate [2, 3]: 58 ± 3 beats per min. | rebound hypertension ([2]; after discontinuation of infusion): did not occur | tachyphylaxis [2]: without evidence of tachyphylaxis | tachyphylaxis ([2]; listed as Adenosine): absence of tachyphylaxis | SVR during adenosine ([2]; decreased from 16.7): 6.2 mmHg per liter a minute | Cardiac output ([2]; during adenosine): 6.86 ± 0.71 liters per min. | Diastolic blood pressure ([2]; during adenosine): 34 ± 2 mmHg | Mean arterial blood pressure ([2]; during adenosine): 46 ± 2 mmHg and 46 mmHg | Pulmonary artery pressure ([2]; during adenosine): 16.5 ± 0.9 mmHg | Pulmonary capillary wedge pressure ([2]; during adenosine): 11.0 ± 1.0 mmHg | Pulmonary vascular resistance ([2]; during adenosine): 0.82 ± 0.08 mmHg per liter min. | Right atrial pressure ([2]; during adenosine): 7.2 ± 0.7 mmHg | Systolic blood pressure ([2]; during adenosine): 78 ± 6 mmHg | heart rate ([2]; during adenosine): 63 ± 3 beats per min. | cardiac output during adenosine ([2]; increased from 4.9): 6.9 1 per minute | MABP increase after hypotension vs control period ([2]; persistently higher after hypotension): approximately 10 mmHg | time to decrease in MABP ([2]; within): 1 to 2 min | time to restoration of MABP after discontinuation ([2]; within): 1 to 5 min
